Results from patent publication US12370166B2, “Pentadecanoylcarnitine for treatment of conditions related to the quality of aging and longevity” (EPITRACKER, INC., priority 2021, dated 2025).

What was measured:
BT cell system = assay: Human primary cell phenotypic profiling, BT cell system (asthma, oncology, autoimmunity, allergy); format: cell-based; details: 6.7 μM stated for pentadecanoylcarnitine
Method: Methods for this human primary cell phenotypic profiling study were those previously described (Venn-Watson, S., Lumpkin, R., Dennis, E. A. Efficacy of dietary odd-chain saturated fatty acid pentadecanoic acid parallels broad associated health benefits in humans: could it be essential? Sci Rep 10:8161 (2020)). Significant activities of pentadecanoylcarnitine were those that were equal to or greater than 0.1|log 10| at 6.7 μM. Biomarkers with significant changes caused by pentadecanoylcarnitine were compared with results from the same study using pentadecanoic acid (C15:0).

Dopamine receptor D1 = Dopamine receptor D1 (Homo sapiens, UniProt P21728); assay: Receptor-based pharmacological activity, antagonist; format: biochemical; details: for IC50: read-out: RC50 (IC50)
Dopamine receptor D1, sequence (P21728 whole entry, species assumed): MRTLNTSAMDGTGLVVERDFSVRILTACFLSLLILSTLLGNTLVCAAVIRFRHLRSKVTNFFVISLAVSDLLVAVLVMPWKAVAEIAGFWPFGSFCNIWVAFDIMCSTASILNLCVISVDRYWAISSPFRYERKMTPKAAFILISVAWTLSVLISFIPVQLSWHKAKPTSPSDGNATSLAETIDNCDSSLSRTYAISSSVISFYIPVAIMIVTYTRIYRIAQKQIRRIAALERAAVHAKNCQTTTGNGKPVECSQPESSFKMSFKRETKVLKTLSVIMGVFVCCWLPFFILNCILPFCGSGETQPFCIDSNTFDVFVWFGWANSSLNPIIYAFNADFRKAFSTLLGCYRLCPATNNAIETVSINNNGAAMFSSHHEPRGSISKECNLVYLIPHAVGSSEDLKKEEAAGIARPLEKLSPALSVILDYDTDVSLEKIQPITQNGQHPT
Method: (§1) Methods for this study have been previously described (Venn-Watson, S., Lumpkin, R., Dennis, E. A. Efficacy of dietary odd-chain saturated fatty acid pentadecanoic acid parallels broad associated health benefits in humans: could it be essential? Sci Rep 10:8161 (2020)). Significant activities of pentadecanoylcarnitine were those tagged as having maximum pharmacological activities that were greater than or equal to 70% that of the internal control between the concentrations of 1 to 20 μM. Significant pharmacological activities caused by pentadecanoylcarnitine were compared with results from the same assays using pentadecanoic acid (C15:0).

Histamine H1 receptor = Histamine H1 receptor (Homo sapiens, UniProt P35367); assay: as above; format: biochemical; details: for IC50: read-out: RC50 (IC50)
Histamine H1 receptor, sequence (P35367 whole entry): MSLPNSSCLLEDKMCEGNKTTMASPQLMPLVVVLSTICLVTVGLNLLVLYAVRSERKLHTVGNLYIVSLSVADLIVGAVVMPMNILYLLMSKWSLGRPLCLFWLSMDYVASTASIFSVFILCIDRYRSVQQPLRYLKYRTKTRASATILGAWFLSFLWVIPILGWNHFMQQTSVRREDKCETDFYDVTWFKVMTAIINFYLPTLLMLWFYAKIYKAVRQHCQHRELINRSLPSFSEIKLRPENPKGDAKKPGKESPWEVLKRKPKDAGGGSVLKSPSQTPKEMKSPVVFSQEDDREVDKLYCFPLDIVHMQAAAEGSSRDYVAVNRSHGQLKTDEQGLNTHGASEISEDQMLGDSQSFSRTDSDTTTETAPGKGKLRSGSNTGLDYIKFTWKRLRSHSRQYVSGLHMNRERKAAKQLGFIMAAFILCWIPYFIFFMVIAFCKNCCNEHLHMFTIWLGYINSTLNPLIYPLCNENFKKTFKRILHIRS
Method: as §1

Histamine H2 receptor = Histamine H2 receptor (Homo sapiens, UniProt P25021); assay: as above; format: biochemical; details: for IC50: read-out: RC50 (IC50)
Histamine H2 receptor, sequence (P25021 whole entry): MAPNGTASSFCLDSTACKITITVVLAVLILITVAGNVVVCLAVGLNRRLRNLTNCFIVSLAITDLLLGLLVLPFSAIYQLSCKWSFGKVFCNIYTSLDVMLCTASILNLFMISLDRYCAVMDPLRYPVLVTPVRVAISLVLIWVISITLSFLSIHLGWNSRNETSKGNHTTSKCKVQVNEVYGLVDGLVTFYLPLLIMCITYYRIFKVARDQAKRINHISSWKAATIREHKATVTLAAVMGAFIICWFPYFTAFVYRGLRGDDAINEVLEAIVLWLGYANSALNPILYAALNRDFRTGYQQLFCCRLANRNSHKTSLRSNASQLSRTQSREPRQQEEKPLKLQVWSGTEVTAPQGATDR
Method: as §1

5-HT1A receptor = molecular target: T1, 5-HT1A receptor (Homo sapiens, UniProt P08908); assay: Receptor-based pharmacological activity, agonist; format: biochemical; details: for EC50: read-out: RC50 (EC50)
T1 sequence (P08908 1-422): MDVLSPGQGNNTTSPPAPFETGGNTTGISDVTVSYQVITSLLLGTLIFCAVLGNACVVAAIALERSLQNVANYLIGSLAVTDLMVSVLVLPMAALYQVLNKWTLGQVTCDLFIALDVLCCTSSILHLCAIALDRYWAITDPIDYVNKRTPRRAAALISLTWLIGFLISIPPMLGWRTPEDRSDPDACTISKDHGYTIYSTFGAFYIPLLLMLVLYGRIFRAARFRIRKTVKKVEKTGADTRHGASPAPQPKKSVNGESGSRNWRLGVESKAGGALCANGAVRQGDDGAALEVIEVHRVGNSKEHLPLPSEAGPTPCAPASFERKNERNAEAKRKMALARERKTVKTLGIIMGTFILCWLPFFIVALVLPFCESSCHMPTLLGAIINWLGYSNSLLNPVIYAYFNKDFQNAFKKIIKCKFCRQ
Method: as §1

5-HT1B receptor = 5-HT1B receptor (Homo sapiens, UniProt P28222); assay: Receptor-based pharmacological activity, agonist; format: biochemical; details: for EC50: read-out: RC50 (EC50)
5-HT1B receptor, sequence (P28222 whole entry): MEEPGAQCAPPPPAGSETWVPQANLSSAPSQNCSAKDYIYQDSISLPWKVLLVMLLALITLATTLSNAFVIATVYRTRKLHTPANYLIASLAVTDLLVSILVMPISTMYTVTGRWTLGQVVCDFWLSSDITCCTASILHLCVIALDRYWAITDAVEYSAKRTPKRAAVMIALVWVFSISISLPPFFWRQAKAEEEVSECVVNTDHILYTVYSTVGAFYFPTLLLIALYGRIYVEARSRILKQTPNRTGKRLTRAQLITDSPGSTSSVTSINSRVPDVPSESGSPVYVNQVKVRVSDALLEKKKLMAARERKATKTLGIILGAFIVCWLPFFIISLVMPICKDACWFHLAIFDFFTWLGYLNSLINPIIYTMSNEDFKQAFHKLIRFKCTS
Method: as §1

Cannabinoid receptor 1 = Cannabinoid receptor 1 (Homo sapiens, UniProt P21554); assay: Receptor-based pharmacological activity, agonist; format: biochemical; details: for EC50: read-out: RC50 (EC50); for Pharmacological activity at cannabinoid receptor 1: at approximately 1 to 20 μM
Cannabinoid receptor 1, sequence (P21554 whole entry, species assumed): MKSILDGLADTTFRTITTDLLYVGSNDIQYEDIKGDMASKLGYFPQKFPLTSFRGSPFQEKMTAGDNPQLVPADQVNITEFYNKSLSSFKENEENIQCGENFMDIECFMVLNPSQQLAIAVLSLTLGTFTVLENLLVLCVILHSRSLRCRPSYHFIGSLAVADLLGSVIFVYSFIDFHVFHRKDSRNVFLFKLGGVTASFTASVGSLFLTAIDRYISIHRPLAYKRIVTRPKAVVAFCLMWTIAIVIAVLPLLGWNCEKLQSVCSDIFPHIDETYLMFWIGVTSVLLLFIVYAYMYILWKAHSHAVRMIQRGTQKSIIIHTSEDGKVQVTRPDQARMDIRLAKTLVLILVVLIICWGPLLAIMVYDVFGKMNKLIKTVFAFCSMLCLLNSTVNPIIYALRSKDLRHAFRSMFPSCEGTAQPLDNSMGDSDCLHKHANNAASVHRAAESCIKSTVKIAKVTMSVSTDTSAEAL
Method: as §1

Cannabinoid receptor 2 = Cannabinoid receptor 2 (Homo sapiens, UniProt P34972); assay: Receptor-based pharmacological activity, agonist; format: biochemical; details: for EC50: read-out: RC50 (EC50); for Pharmacological activity at cannabinoid receptor 2: at approximately 1 to 20 μM
Cannabinoid receptor 2, sequence (P34972 whole entry): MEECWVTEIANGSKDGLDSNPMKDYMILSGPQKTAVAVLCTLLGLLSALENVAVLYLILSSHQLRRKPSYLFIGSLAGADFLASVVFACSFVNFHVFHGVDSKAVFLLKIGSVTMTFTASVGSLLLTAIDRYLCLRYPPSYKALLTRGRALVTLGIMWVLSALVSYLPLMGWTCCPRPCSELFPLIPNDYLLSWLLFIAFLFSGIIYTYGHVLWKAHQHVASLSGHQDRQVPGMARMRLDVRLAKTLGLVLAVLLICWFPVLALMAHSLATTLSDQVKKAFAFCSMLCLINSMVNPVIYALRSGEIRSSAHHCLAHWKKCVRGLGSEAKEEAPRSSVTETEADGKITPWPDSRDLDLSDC
Method: as §1

[1] = molecular target: T2, Cholinergic receptor muscarinic 2 (Homo sapiens, UniProt P08172); assay: Receptor-based pharmacological activity, agonist; format: biochemical; details: positive control Acetylcholine chloride; for EC50: read-out: RC50 (EC50)
T2 sequence (P08172 1-466): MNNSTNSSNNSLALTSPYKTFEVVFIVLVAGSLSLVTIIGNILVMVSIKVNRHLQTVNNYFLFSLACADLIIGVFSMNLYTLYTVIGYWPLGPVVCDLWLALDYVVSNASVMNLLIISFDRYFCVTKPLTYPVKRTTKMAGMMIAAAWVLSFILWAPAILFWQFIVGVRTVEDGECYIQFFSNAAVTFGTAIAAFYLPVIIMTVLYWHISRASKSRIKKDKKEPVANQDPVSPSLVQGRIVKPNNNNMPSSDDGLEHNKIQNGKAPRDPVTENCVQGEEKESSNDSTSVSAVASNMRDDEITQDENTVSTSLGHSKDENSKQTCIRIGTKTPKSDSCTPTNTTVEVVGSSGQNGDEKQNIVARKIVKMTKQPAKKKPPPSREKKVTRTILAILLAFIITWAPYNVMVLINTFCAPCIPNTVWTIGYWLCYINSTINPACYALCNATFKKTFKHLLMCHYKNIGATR
Method: as §1

α-2A adrenergic receptor = molecular target: T3, α-2A adrenergic receptor (Homo sapiens, UniProt P08913); assay: Receptor-based pharmacological activity, agonist; format: biochemical; details: for EC50: read-out: RC50 (EC50)
T3 sequence (P08913 1-465): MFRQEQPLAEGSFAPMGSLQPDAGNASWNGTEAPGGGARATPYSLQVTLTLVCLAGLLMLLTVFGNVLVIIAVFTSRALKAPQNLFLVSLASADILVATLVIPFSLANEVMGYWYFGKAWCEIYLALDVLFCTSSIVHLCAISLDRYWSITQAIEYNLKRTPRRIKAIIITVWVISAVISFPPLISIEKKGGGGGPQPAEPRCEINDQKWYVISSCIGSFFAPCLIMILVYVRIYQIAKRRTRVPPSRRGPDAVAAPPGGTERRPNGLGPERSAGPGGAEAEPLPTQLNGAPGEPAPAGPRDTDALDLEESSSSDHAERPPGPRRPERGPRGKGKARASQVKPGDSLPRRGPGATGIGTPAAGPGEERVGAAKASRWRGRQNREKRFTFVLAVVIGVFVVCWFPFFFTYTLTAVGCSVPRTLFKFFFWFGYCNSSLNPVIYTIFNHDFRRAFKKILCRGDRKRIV
Method: as §1

Serotonin Transporter = Serotonin Transporter (Homo sapiens, UniProt P31645); assay: Transporter pharmacological activity, blocker; format: biochemical; details: for IC50: read-out: RC50 (IC50)
Serotonin Transporter, sequence (P31645 whole entry): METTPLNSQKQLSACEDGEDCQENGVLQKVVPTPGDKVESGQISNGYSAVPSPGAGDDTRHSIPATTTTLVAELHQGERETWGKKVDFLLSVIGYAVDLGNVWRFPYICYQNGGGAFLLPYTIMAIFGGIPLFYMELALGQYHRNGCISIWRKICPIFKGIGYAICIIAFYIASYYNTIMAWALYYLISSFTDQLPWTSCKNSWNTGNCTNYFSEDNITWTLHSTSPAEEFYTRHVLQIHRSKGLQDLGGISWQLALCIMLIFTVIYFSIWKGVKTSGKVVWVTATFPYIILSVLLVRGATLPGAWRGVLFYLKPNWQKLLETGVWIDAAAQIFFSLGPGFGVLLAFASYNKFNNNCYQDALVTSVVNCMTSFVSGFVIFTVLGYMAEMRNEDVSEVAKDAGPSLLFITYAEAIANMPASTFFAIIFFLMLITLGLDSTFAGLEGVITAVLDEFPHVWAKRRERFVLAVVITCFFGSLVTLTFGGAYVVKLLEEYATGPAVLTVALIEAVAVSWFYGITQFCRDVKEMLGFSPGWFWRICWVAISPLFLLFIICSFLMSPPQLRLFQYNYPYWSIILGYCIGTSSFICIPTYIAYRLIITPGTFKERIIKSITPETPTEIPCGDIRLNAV
Method: as §1

[2] = Antagonist, positive control SCH 39166
[3] = Antagonist, positive control Mepyramine
[4] = Antagonist, positive control Tiotidine
[5] = Agonist, positive control Serotonin hydrochloride, 1 to 20 μM, read-out: Max Response (%) Compared to Positive Control
[6] = Agonist, positive control Serotonin hydrochloride
[7] = Agonist, positive control CP 55940
[8] = read-out: Max Response (%) Compared to Positive Control
[9] = Agonist, positive control UK 14304
[10] = Blocker, positive control Clomipramine
[11] = Agonist, positive control Serotonin hydrochloride, 1 to 20 μM
[12] = Agonist, positive control CP 55940, 1 to 20 μM
[13] = listed as pentadecenoyl carnitine

For `CCCCCCCCCCCCCCC(=O)O` [Pentadecanoic acid (C15:0), Pentadecanoic acid], the sIL-6 biomarker change (BT cell system) was “+0.12 log 10”, the sTNF-α biomarker change (BT cell system) was “+0.14 log 10” and the Emax (Dopamine receptor D1; Antagonist, positive control SCH 39166, 1 to 20 μM, read-out: Max Response (%) Compared to Positive Control) was 4%. For the same compound, the IC50 (Dopamine receptor D1; [2]) was > 20 µM, the Emax (Histamine H1 receptor; Antagonist, positive control Mepyramine, 1 to 20 μM, read-out: Max Response (%) Compared to Positive Control) was 5% and the IC50 (Histamine H1 receptor; [3]) was > 20 µM. The Emax (Histamine H2 receptor; Antagonist, positive control Tiotidine, 1 to 20 μM, read-out: Max Response (%) Compared to Positive Control) was 2%, the IC50 (Histamine H2 receptor; [4]) was > 20 µM and the Emax (5-HT1A receptor; [5]) was 0%. For the same compound, the EC50 (5-HT1A receptor; [6]) was > 20 µM, the Emax (5-HT1B receptor; [5]) was 0% and the EC50 (5-HT1B receptor; [6]) was > 20 µM. The EC50 (Cannabinoid receptor 1; [7]) was > 20 µM, the Emax (Cannabinoid receptor 1; [8]) was 25% and the Emax (Cannabinoid receptor 2; Agonist, positive control CP 55940, 1 to 20 μM, read-out: Max Response (%) Compared to Positive Control) was 22%. For the same compound, the EC50 (Cannabinoid receptor 2; [7]) was > 20 µM, the Emax ([1]; 1 to 20 μM, read-out: Max Response (%) Compared to Positive Control) was 2% and the EC50 [1] was > 20 µM. For the same compound, the Emax (α-2A adrenergic receptor; Agonist, positive control UK 14304, 1 to 20 μM, read-out: Max Response (%) Compared to Positive Control) was 22%, the EC50 (α-2A adrenergic receptor; [9]) was > 20 µM and the IC50 (Serotonin Transporter; [10]) was > 20 µM. The Emax (Serotonin Transporter; [8]) was 1%.
With `CCCCCCCCCCCCCCC(=O)O[C@H](CC(=O)[O-])C[N+](C)(C)C` [Pentadecanoylcarnitine, pentadecanoylcarnitine] the sIL-6 biomarker change (BT cell system) was −0.13 log 10, the sTNF-α biomarker change (BT cell system) was −0.10 log 10 and the “Max Response (%) Compared to Positive Control” value (Dopamine receptor D1; Antagonist, positive control SCH 39166, 1 to 20 μM) was 105%. The IC50 (Dopamine receptor D1; [2]) was 6.2 µM, the “Pharmacological activity at dopamine receptor D1” value (Dopamine receptor D1; at approximately 1 to 20 μM) was “antagonist” and the “Max Response (%) Compared to Positive Control” value (Histamine H1 receptor; Antagonist, positive control Mepyramine, 1 to 20 μM) was 71%. For the same compound, the IC50 (Histamine H1 receptor; [3]) was 10.9 µM, the “Pharmacological activity at histamine H1 receptor” value (Histamine H1 receptor; at approximately 1 to 20 μM) was “antagonist” and the “Max Response (%) Compared to Positive Control” value (Histamine H2 receptor; Antagonist, positive control Tiotidine, 1 to 20 μM) was 98%. The IC50 (Histamine H2 receptor; [4]) was 6.1 µM, the “Pharmacological activity at histamine H2 receptor” value (Histamine H2 receptor; at approximately 1 to 20 μM) was “antagonist” and the “Max Response (%) Compared to Positive Control” value (5-HT1A receptor; [11]) was 78%. The EC50 (5-HT1A receptor; [6]) was 9.6 µM, the “Pharmacological activity at 5-HT1A receptor” value (5-HT1A receptor; at approximately 1 to 20 μM) was “agonist” and the “Max Response (%) Compared to Positive Control” value (5-HT1B receptor; [11]) was 74%. For the same compound, the EC50 (5-HT1B receptor; [6]) was 9.3 µM, the “Pharmacological activity at 5-HT1B receptor” value (5-HT1B receptor; at approximately 1 to 20 μM) was “agonist” and the “Max Response (%) Compared to Positive Control” value (Cannabinoid receptor 1; [12]) was 111%. The EC50 (Cannabinoid receptor 1; [7]) was 3.7 µM, the “Pharmacological activity at cannabinoid receptor 1” value (Cannabinoid receptor 1) was “agonist” and the “Pharmacological activity at cannabinoid receptor 1” value (Cannabinoid receptor 1; [13]) was “fully activates”. For the same compound, the “Max Response (%) Compared to Positive Control” value (Cannabinoid receptor 2; [12]) was 106%, the EC50 (Cannabinoid receptor 2; [7]) was 3.2 µM and the “Pharmacological activity at cannabinoid receptor 2” value (Cannabinoid receptor 2) was “agonist”. The “Pharmacological activity at cannabinoid receptor 2” value (Cannabinoid receptor 2; [13]) was “fully activates”, the “Max Response (%) Compared to Positive Control” value ([1]; 1 to 20 μM) was 206% and the EC50 [1] was 3.9 µM. The “Max Response (%) Compared to Positive Control” value (α-2A adrenergic receptor; Agonist, positive control UK 14304, 1 to 20 μM) was 105%, the EC50 (α-2A adrenergic receptor; [9]) was 5.9 µM and the “Pharmacological activity at α-2A adrenergic receptor” value (α-2A adrenergic receptor; at approximately 1 to 20 μM) was “agonist”. For the same compound, the “Max Response (%) Compared to Positive Control” value (Serotonin Transporter; Blocker, positive control Clomipramine, 1 to 20 μM) was 83%, the IC50 (Serotonin Transporter; [10]) was 7.4 µM and the “Pharmacological activity at SERT” value (Serotonin Transporter; at approximately 1 to 20 μM) was “blocker”.
